Test results published in article PMC9346598 (The Journal of Poultry Science, 2022).

How the values were obtained:
[1] = target: T1, chicken GPR120 (cGPR120) (Gallus gallus, UniProt A0A8V0ZCZ6); experiment: Fura-2 Ca2+ imaging in transfected HEK293T cells, Hill fit; format: cell-based
T1 sequence (A0A8V0ZCZ6 1-362): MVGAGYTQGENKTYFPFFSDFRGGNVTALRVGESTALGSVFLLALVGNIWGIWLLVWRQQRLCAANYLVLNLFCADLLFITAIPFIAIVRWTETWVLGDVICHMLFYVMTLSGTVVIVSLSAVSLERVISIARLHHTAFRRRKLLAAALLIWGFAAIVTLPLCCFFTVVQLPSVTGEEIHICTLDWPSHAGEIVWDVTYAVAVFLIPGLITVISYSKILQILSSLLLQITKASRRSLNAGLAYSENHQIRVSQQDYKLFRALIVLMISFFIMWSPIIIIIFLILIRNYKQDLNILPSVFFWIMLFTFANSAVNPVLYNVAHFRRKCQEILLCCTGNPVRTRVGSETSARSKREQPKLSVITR

[2] = target: T1, chicken GPR120 (cGPR120); experiment: as above; format: cell-based; conditions: agonist, pH 7.4, about 37 C

## CCCCC/C=C\C/C=C\C/C=C\C/C=C\CCCC(=O)O [AA, arachidonic acid]
[1]
  EC50: 1040 µM

## CC/C=C\C/C=C\C/C=C\C/C=C\C/C=C\C/C=C\CCC(=O)O [DHA, docosahexaenoic acid]
[2]; 0.1-3 mmol/L in well, stock in ethanol
  Fura-2 Ca2+ imaging in transfected HEK293T cells, Hill fit: EPA and DHA activated cGPR120 in a dose-dependent manner

## CC/C=C\C/C=C\C/C=C\C/C=C\C/C=C\CCCC(=O)O [EPA, eicosapentaenoic acid]
[2]; 0.1-7 mmol/L in well, stock in ethanol
  Fura-2 Ca2+ imaging in transfected HEK293T cells, Hill fit: EPA and DHA activated cGPR120 in a dose-dependent manner

## CCCCC/C=C\C/C=C\CCCCCCCC(=O)O [LA, linoleic acid]
[2]; 1-10 mmol/L in well, stock in DMSO
  Fura-2 Ca2+ imaging in transfected HEK293T cells, Hill fit: cGPR120 cells were activated in a dose-dependent manner by LA
